ChEMBL document CHEMBL1133283, “Arylsulfonyl-N,N-diethyl-dithiocarbamates: a novel class of antitumor agents” (Bioorg Med Chem Lett, 2000)

How the values were obtained:
[1] = system: A549; test: In vitro growth inhibition of compound was determined against A549/ATCC cell lines of non-small cell lung cancer; assay type: functional; settings: Homo sapiens
[2] = system: 786-0; test: In vitro growth inhibition of compound was determined against […] cell lines of Renal cancer; assay type: functional; settings: Homo sapiens
[3] = system: BT-549; test: In vitro growth inhibition of compound was determined against BT-549 cell lines of Breast cancer; assay type: functional; settings: Homo sapiens
[4] = system: COLO 205; test: In vitro growth inhibition of compound was determined against COLO-205 cell lines of colon cancer; assay type: functional; settings: Homo sapiens
[5] = system: CCRF-CEM; test: In vitro growth inhibition of compound was determined against CCRF-CEM cell lines of Leukemia; assay type: functional; settings: Homo sapiens
[6] = system: CAKI-1; test: In vitro growth inhibition of compound was determined against CAKI-1 cell lines of Renal cancer; assay type: functional; settings: Homo sapiens
[7] = system: DU-145; test: In vitro growth inhibition of compound was determined against DU-145 cell lines of Prostate cancer; assay type: functional; settings: Homo sapiens
[8] = system: HCT-15; test: In vitro growth inhibition of compound was determined against HCT-15 cell lines of colon cancer; assay type: functional; settings: Homo sapiens
[9] = system: HOP-92; test: In vitro growth inhibition of compound was determined against HOP-92 cell lines of non-small cell lung cancer; assay type: functional; settings: Homo sapiens
[10] = system: HL-60; test: In vitro growth inhibition of compound was determined against HL-60(TB) cell lines of Leukemia; assay type: functional; settings: Homo sapiens
[11] = system: HCT-116; test: In vitro growth inhibition of compound was determined against HCT116 cell lines of colon cancer; assay type: functional; settings: Homo sapiens
[12] = system: HT-29; test: In vitro growth inhibition of compound was determined against HT-29 cell lines of colon cancer; assay type: functional; settings: Homo sapiens
[13] = system: HCC 2998; test: In vitro growth inhibition of compound was determined against HCC2998 cell lines of colon cancer; assay type: functional; settings: Homo sapiens
[14] = system: Hs-578T; test: In vitro growth inhibition of compound was determined against Hs 578.T cell lines of Breast cancer; assay type: functional; settings: Homo sapiens
[15] = system: IGROV-1; test: In vitro growth inhibition of compound was determined against IGROVI cell lines of Ovarian cancer; assay type: functional; settings: Homo sapiens
[16] = system: K562; test: In vitro growth inhibition of compound was determined against K-562 cell lines of Leukemia; assay type: functional; settings: Homo sapiens
[17] = system: KM12; test: In vitro growth inhibition of compound was determined against KM12 cell lines of colon cancer; assay type: functional; settings: Homo sapiens
[18] = system: MOLT-4; test: In vitro growth inhibition of compound was determined against MOLT-4 cell lines of Leukemia; assay type: functional; settings: Homo sapiens
[19] = system: LOX IMVI; test: In vitro growth inhibition of compound was determined against LOX IMVI cell lines of Melanoma; assay type: functional; settings: Homo sapiens
[20] = system: MDA-MB-435; test: In vitro growth inhibition of compound was determined against MDA-MB-435 cell lines of Breast cancer; assay type: functional; settings: Homo sapiens
[21] = system: MDA-MB-231; test: In vitro growth inhibition of compound was determined against MDA-MB-231/ATCC cell lines of Breast cancer; assay type: functional; settings: Homo sapiens
[22] = system: MDA-N; test: In vitro growth inhibition of compound was determined against MDA-Ncell lines of Breast cancer; assay type: functional; settings: Homo sapiens
[23] = system: M14; test: In vitro growth inhibition of compound was determined against M14 cell lines of Melanoma; assay type: functional; settings: Homo sapiens
[24] = system: Malme-3M; test: In vitro growth inhibition of compound was determined against MALME-3M cell lines of Melanoma; assay type: functional; settings: Homo sapiens
[25] = system: MCF7; test: In vitro growth inhibition of compound was determined against MCF-7 cell lines of Breast cancer; assay type: functional; settings: Homo sapiens
[26] = system: NCI-H522; test: In vitro growth inhibition of compound was determined against NCI-H522 cell lines of non-small cell lung cancer; assay type: functional; settings: Homo sapiens
[27] = system: NCI-H226; test: In vitro growth inhibition of compound was determined against NCI-H226 cell lines of non-small cell lung cancer; assay type: functional; settings: Homo sapiens
[28] = system: NCI/ADR-RES; test: In vitro growth inhibition of compound was determined against NCI/ADR-RES cell lines of Breast cancer; assay type: functional; settings: Homo sapiens
[29] = system: OVCAR-3; test: In vitro growth inhibition of compound was determined against OVCAR-3 cell lines of Ovarian cancer; assay type: functional; settings: Homo sapiens
[30] = system: OVCAR-8; test: In vitro growth inhibition of compound was determined against OVCAR-8 cell lines of Ovarian cancer; assay type: functional; settings: Homo sapiens
[31] = system: OVCAR-4; test: In vitro growth inhibition of compound was determined against OVCAR-4 cell lines of Ovarian cancer; assay type: functional; settings: Homo sapiens
[32] = system: PC-3; test: In vitro growth inhibition of compound was determined against PC-3 cell lines of Prostate cancer; assay type: functional; settings: Homo sapiens
[33] = system: RXF 393; test: In vitro growth inhibition of compound was determined against RXF393 cell lines of Renal cancer; assay type: functional; settings: Homo sapiens
[34] = system: RPMI-8226; test: In vitro growth inhibition of compound was determined against RPMI-8226 cell lines of Leukemia; assay type: functional; settings: Homo sapiens
[35] = system: SF-268; test: In vitro growth inhibition of compound was determined against SF-268 cell lines of CNS cancer; assay type: functional; settings: Homo sapiens
[36] = system: SW-620; test: In vitro growth inhibition of compound was determined against SW-620 cell lines of colon cancer; assay type: functional; settings: Homo sapiens
[37] = system: SR; test: In vitro growth inhibition of compound was determined against SR cell lines of Leukemia; assay type: functional; settings: Homo sapiens
[38] = system: SN12C; test: In vitro growth inhibition of compound was determined against SN12C cell lines of Renal cancer; assay type: functional; settings: Homo sapiens
[39] = system: SF-295; test: In vitro growth inhibition of compound was determined against SF-295 cell lines of CNS cancer; assay type: functional; settings: Homo sapiens
[40] = system: SNB-75; test: In vitro growth inhibition of compound was determined against SNB-75 cell lines of CNS cancer; assay type: functional; settings: Homo sapiens
[41] = system: SK-MEL-28; test: In vitro growth inhibition of compound was determined against SK-MEL-28 cell lines of Melanoma; assay type: functional; settings: Homo sapiens
[42] = system: SK-MEL-5; test: In vitro growth inhibition of compound was determined against SK-MEL-5 cell lines of Melanoma; assay type: functional; settings: Homo sapiens
[43] = system: TK-10; test: In vitro growth inhibition of compound was determined against TK-10 cell lines of Renal cancer; assay type: functional; settings: Homo sapiens
[44] = system: UACC-257; test: In vitro growth inhibition of compound was determined against UACC-257 cell lines of Melanoma; assay type: functional; settings: Homo sapiens
[45] = system: UO-31; test: In vitro growth inhibition of compound was determined against UO-31 cell lines of Renal cancer; assay type: functional; settings: Homo sapiens
[46] = system: U-251; test: In vitro growth inhibition of compound was determined against U251 cell lines of CNS cancer; assay type: functional; settings: Homo sapiens
[47] = system: ACHN; test: In vitro growth inhibition of compound was determined against ACHN cell lines of Renal cancer; assay type: functional; settings: Homo sapiens
[48] = system: HOP-62; test: In vitro growth inhibition of compound was determined against HOP-62 cell lines of non-small cell lung cancer; assay type: functional; settings: Homo sapiens
[49] = target: Carbonic anhydrase 2 (Homo sapiens, UniProt P00918); test: Binding affinity of compound against human Carbonic anhydrase II

Structure (SMILES): CCN(CC)C(=S)SS(=O)(=O)c1ccccc1[N+](=O)[O-]
- GI50 [1]: 3 µM
- GI50 [2]: 19 µM
- GI50 [3]: 26 µM
- GI50 [4]: 28 µM
- GI50 [5]: 2.5 µM
- GI50 [6]: 17 µM
- GI50 [7]: 19 µM
- GI50 [8]: 34 µM
- GI50 [9]: 14 µM
- GI50 [10]: 200 nM
- GI50 [11]: 15 µM
- GI50 [12]: 14 µM
- GI50 [13]: 24 µM
- GI50 [14]: 29 µM
- GI50 [15]: 500 nM
- GI50 [16]: 11 µM
- GI50 [17]: 12 µM
- GI50 [18]: 400 nM
- GI50 [19]: 16 µM
- GI50 [20]: 18 µM
- GI50 [21]: 16 µM
- GI50 [22]: 19 µM
- GI50 [23]: 11 µM
- GI50 [24]: 10 µM
- GI50 [25]: 25 µM
- GI50 [26]: 80 nM
- GI50 [27]: 36 µM
- GI50 [28]: 30 µM
- GI50 [29]: 22 µM
- GI50 [30]: 18 µM
- GI50 [31]: 23 µM
- GI50 [32]: 54 µM
- GI50 [33]: 15 µM
- GI50 [34]: 15 µM
- GI50 [35]: 26 µM
- GI50 [36]: 15 µM
- GI50 [37]: 300 nM
- GI50 [38]: 18 µM
- GI50 [39]: 32 µM
- GI50 [40]: 76 µM
- GI50 [41]: 13 µM
- GI50 [42]: 3 µM
- GI50 [43]: 29 µM
- GI50 [44]: 17 µM
- GI50 [45]: 13 µM
- GI50 [46]: 13 µM
- GI50 [47]: 24 µM
- GI50 [48]: 20 µM

Structure (SMILES): CCN(CC)C(=S)SS(=O)(=O)c1ccccc1C(=O)O
- GI50 [1]: 6.5 µM
- GI50 [2]: > 100 µM
- GI50 [4]: > 100 µM
- GI50 [5]: 82 µM
- GI50 [6]: > 100 µM
- GI50 [7]: > 100 µM
- GI50 [8]: > 100 µM
- GI50 [9]: > 100 µM
- GI50 [10]: 1400 nM
- GI50 [12]: > 100 µM
- GI50 [15]: > 100000 nM
- GI50 [19]: > 100 µM
- GI50 [21]: > 100 µM
- GI50 [22]: > 100 µM
- GI50 [23]: > 100 µM
- GI50 [24]: 91 µM
- GI50 [25]: > 100 µM
- GI50 [26]: 1200 nM
- GI50 [27]: > 100 µM
- GI50 [29]: > 100 µM
- GI50 [30]: > 100 µM
- GI50 [31]: > 100 µM
- GI50 [32]: > 100 µM
- GI50 [33]: > 100 µM
- GI50 [35]: > 100 µM
- GI50 [36]: > 100 µM
- GI50 [37]: 3600 nM
- GI50 [39]: > 100 µM
- GI50 [40]: > 100 µM
- GI50 [41]: > 100 µM
- GI50 [42]: 37 µM
- GI50 [44]: > 100 µM
- GI50 [45]: > 100 µM
- GI50 [46]: > 100 µM
- GI50 [47]: > 100 µM
- GI50 [48]: > 100 µM

Structure (SMILES): NS(=O)(=O)c1ccc(NSC(=S)N2CCOCC2)cc1
- Ki [49]: 35 nM

Structure (SMILES): NS(=O)(=O)c1ccc(CNSC(=S)N2CCOCC2)cc1
- Ki [49]: 35 nM
